Activity calls are given as the source filed them.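 Rule for the calls: active = more than half of replicate measurements showing over 20% loss of kinase signal relative to plate controls; inconclusive = some but at most half of replicates over 20% loss; inactive = no replicate over 20% signal loss.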

For this assay, the target named is Glycogen synthase kinase-3 alpha (Homo sapiens) (UniProt P49840). Briefly: concentration-response blocking of human GSK3A – biochemical, luminescence, cell-free homogeneous, retest, dose response (AID 463203). As to conditions: GSK-3 alpha enzyme, ADP-Glo luminescence, 60 min. For orientation: In ADP-Glo the light output rises with the ADP produced.
Glycogen synthase kinase-3 alpha (Homo sapiens), sequence (P49840 whole entry, looked up): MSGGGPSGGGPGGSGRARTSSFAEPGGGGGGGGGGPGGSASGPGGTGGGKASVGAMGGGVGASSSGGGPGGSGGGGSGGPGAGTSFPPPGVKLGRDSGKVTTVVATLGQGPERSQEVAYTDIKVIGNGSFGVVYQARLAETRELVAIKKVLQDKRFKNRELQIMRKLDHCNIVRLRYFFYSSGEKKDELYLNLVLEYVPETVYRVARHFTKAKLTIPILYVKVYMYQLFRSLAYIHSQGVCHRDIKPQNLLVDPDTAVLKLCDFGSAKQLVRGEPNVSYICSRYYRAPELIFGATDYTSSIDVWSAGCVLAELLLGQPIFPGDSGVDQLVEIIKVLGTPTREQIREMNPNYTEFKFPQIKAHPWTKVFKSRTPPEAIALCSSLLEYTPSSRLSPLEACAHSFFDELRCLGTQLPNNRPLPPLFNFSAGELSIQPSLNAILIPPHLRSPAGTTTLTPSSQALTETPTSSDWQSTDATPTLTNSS
The AC50 is the concentration giving half of the maximal activity seen. As to `CC1(C)CC(=O)C(C(c2ccncc2)C2C(=O)CC(C)(C)CC2=O)C(=O)C1`, the AC50 was > 30 µM (inactive).
In the case of `O=C(N/N=C/c1ccc(O)c(O)c1)NC12CC3CC(CC(C3)C1)C2`, the AC50 is > 30 µM (inactive).
As for `Cn1cnnc1SCC(=O)Nc1ncc([N+](=O)[O-])s1`, the AC50 was > 30 µM (inactive).
The result for `COc1ccc(/C=C/c2nc(N)nc(-c3ccccc3O)n2)cc1` reads > 30 µM (inactive); that for `CCOC(=O)CC1COc2ccccc2N1C(=O)c1ccc(C)cc1` (stereo unspecified), > 30 µM (inactive); that for `COc1cccc(OCc2cc(C(=O)NCc3ccc4c(c3)OCO4)no2)c1`, > 30 µM (inactive).
Turning to `O=C(Nc1ccccc1-c1nnc(SCc2ccc(Cl)cc2Cl)o1)c1ccccc1`, the AC50 is > 30 µM (inactive).
For the compound `N#CC1=C2SCN(Cc3ccco3)CN2C(=O)CC1c1ccc(Cl)cc1` (stereo unspecified), the AC50 is > 30 µM (inactive).
On to `O=C(N/N=C/c1ccc(Cl)c(Cl)c1)c1ccc2nc[nH]c2c1`, for which the AC50 is > 30 µM (inactive).
As for `C[C@@H]1O[C@@H](Oc2c(-c3ccc(O)c(O)c3)oc3cc(O)cc(O)c3c2=O)[C@H](O)[C@H](O)[C@H]1O`, the AC50 is 29.8 µM.
For `COCCNC(=O)c1ccc(Cn2c(=S)[nH]c3cc4c(cc3c2=O)OCO4)cc1`, the AC50 is > 30 µM (inactive).
Turning to `N#Cc1c(Nc2ccccc2)c(/C=N/N=C/c2ccccc2)c[nH]c1=O`, the AC50 was > 30 µM (inactive).
On to `O=C(O)c1ccc(N=c2oc3cc(O)ccc3cc2C(=O)NCc2ccccc2)cc1`, for which the AC50 was 5.83 µM.
For `CN(c1nc2nonc2nc1NC1CC1)C1CCOC1` (stereo unspecified), the AC50 is > 30 µM (inactive).
As to `CC(NC(=O)COc1ccccc1F)C1CC2CCC1C2` (stereo unspecified), the AC50 was > 30 µM (inactive).
In the case of `CCOC1(OCC)N=C(N)C2(C#N)C(c3cccc(C)c3)C12C#N` (stereo unspecified), the AC50 was > 30 µM (inactive).
With `Cc1ccc(-c2nnc3n2N=C(c2ccccc2Br)CS3)cc1`, the AC50 is > 30 µM (inactive).
For the compound `CCOC(=O)c1cc(-c2ccc(F)cc2)n(CC(=O)NCc2cccnc2)c1C`, the AC50 was > 30 µM (inactive).
As to `CCC(C)Nc1nc(N)c([N+](=O)[O-])c(N2CCCCCC2)n1` (stereo unspecified), the AC50 is 10.9 µM.
With `CC1(C)CC(=O)C(C(c2cccnc2)C2C(=O)CC(C)(C)CC2=O)C(=O)C1` the figure was > 30 µM (inactive); with `CC(=O)c1c(O)cc(O)cc1CC(=O)O`, > 30 µM (inactive); with `O=C(CSc1nc2ccccc2c(=O)n1-c1ccc(F)cc1F)c1c[nH]c2ccccc12`, > 30 µM (inactive).
With `Nc1ncnc2c1ncn2[C@H]1C[C@H](O)[C@@H](CO)O1` the figure was > 30 µM (inactive).
With `COc1ccc(CC(=O)N2CCOCC2)cc1OC`, the AC50 is > 30 µM (inactive).
With `CCCCOC(=O)C1=C(C)Nc2ncnn2C1c1ccc(OC)c(OC)c1` (stereo unspecified), the AC50 is > 30 µM (inactive).
For the compound `O=C(CSc1nc2[nH]ncc2c(=O)n1-c1ccccc1)NCc1cccs1`, the AC50 is > 30 µM (inactive).
As for `O=C(O)C1CC(O)CN1C(=S)Nc1ccccc1` (stereo unspecified), the AC50 is > 30 µM (inactive).
For the compound `CN(C)c1cccc(C(=O)N/N=C/c2ccccc2F)c1`, the AC50 was > 30 µM (inactive).
Take `C=CCNc1nc(N)c([N+](=O)[O-])c(N2CCCCCC2)n1`: the AC50 is 29.1 µM.
As for `Nc1c(O)ccc2c1C(=O)c1ccccc1C2=O`, the AC50 was 18.7 µM.
With `O=C(Nc1ccccc1N1CCOCC1)c1ccc(S(=O)(=O)NCc2ccco2)cc1` the figure was > 30 µM (inactive); with `c1cncc(-c2nc(NCC3COc4ccccc4O3)c3ccccc3n2)c1` (stereo unspecified), 22.9 µM.
With `Cn1cnc(C(=O)NC2CCN(C(=O)OC(C)(C)C)CC2)c1C(=O)NC1CCN(C(=O)OC(C)(C)C)CC1`, the AC50 is > 30 µM (inactive).
With `CCc1ccc(N2CSC3=C(C#N)C(c4cccs4)CC(=O)N3C2)cc1` (stereo unspecified), the AC50 was 28.8 µM.
`Cc1csc(NC(=O)/C=C/c2ccc3c(c2)OCO3)n1`: the AC50 is > 30 µM (inactive).
`CCN(CC)C(=O)c1oc2ccc(S(=O)(=O)N3CCCCCC3)cc2c1C`: the AC50 was > 30 µM (inactive).
As to `O=C(NCCCN1CCOCC1)c1cc(Cl)ccc1[N+](=O)[O-]`, the AC50 is > 30 µM (inactive).
As for `CCCC(=O)Nc1cc(-c2cn3cccnc3n2)ccc1OC`, the AC50 is > 30 µM (inactive).
For `O=C(Nc1ccccc1-c1nnc(SCc2ccccc2Cl)o1)c1ccccc1`, the AC50 was > 30 µM (inactive).
`CC(=O)Oc1ccc2ccc(=O)oc2c1`: the AC50 was > 30 µM (inactive).
As for `CC1(C)CC(=O)C=C(c2cccc(O)c2)C1`, the AC50 was > 30 µM (inactive).
In the case of `CN(C)c1ccc(/C=N/NC(=O)c2ccc(Cl)cc2)cc1`, the AC50 was > 30 µM (inactive).
Turning to `COC(=O)CCCCCCCCC(O)CN(C)C` (stereo unspecified), the AC50 is > 30 µM (inactive).
With `CCCc1cc(C(N)=O)c(NC(C)=O)s1`, the AC50 was 30.8 µM.
As for `O=c1[nH]nnc2c1sc1nc(N3CCOCC3)c3c(c12)CCCC3`, the AC50 is 13.4 µM.
For `Cc1cccc(C)c1OCC(=O)N=Nc1c(O)[nH]c2ccc(Br)cc12`, the AC50 was > 30 µM (inactive).
As to `COc1ccc(O)c(-c2nc(N)nc(N)n2)c1`, the AC50 was 3.88 µM.
In the case of `CC(=O)c1cccc(NC(=S)NC(=O)CC(C)C)c1`, the AC50 is > 30 µM (inactive).
As to `COc1cc2c(cc1OC)-c1c3c(cc4c1[C@@H](C2)N(C)CC4)OCO3`, the AC50 was 24.9 µM.
Turning to `O=[N+]([O-])c1ccc(NCCCN2CCOCC2)c([N+](=O)[O-])c1`, the AC50 is > 30 µM (inactive).
The result for `Cc1ccc(OCC(=O)N2CCN(c3nnc(-c4ccc(C)cc4)c4ccccc34)CC2)cc1` reads > 30 µM (inactive).
Take `CCOC(=O)N1CCC(N2CCN(S(=O)(=O)c3ccc(NC(C)=O)cc3)CC2)CC1`: the AC50 was > 30 µM (inactive).
With `COc1ccccc1/C=N/NC(=O)c1nnn(-c2nonc2N)c1-c1cccs1` the figure was 0.779 µM.
With `CCc1c(C)c(C#N)c2nc3ccccc3n2c1NCc1ccccn1` the figure was 16.8 µM.
Regarding `Cc1cc2oc(C(=O)NCCc3ccc(S(N)(=O)=O)cc3)c(C)c2cc1C`, the AC50 is > 30 µM (inactive).
As to `COc1ccccc1Nc1nc(Cl)c(C=O)s1`, the AC50 was > 30 µM (inactive).
The result for `Clc1ccc(-c2nnc(SCc3nc(-c4ccccc4)no3)o2)cc1` reads > 30 µM (inactive).
As for `O=[N+]([O-])c1ccc(-c2nnc(-c3ccccc3)c(NCCCO)n2)cc1`, the AC50 was > 30 µM (inactive).
Consider `CC(C)(C)N1C(=O)c2ccc(C(=O)O)cc2C1=O`, for which the AC50 is > 30 µM (inactive).
With `CCc1ccccc1NC(=O)CSc1nnc([C@@H](N)Cc2c[nH]c3ccccc23)o1` the figure was > 30 µM (inactive); with `Cc1ccc(OCc2nnnn2-c2ccccc2)cc1`, > 30 µM (inactive); with `OCc1cn(-c2ccccc2)nn1`, > 30 µM (inactive).
Turning to `CCOC(=O)c1c(NC(=S)N2CCOCC2)sc2c1CCN(C(=O)OCC)C2`, the AC50 was > 30 µM (inactive).
As to `Clc1ccc(/C=N/Nc2ncnc3ccccc23)cc1Cl`, the AC50 was > 30 µM (inactive).
`COc1cc(OC)cc(C(=O)O/N=C(\N)c2ccccn2)c1`: the AC50 was > 30 µM (inactive).
On to `CCNc1ccccc(C(=O)/C=C/c2ccc3c(c2)OCO3)c1=O`, for which the AC50 is > 30 µM (inactive).

The record behind these values is PubChem BioAssay AID463203 (Broad Institute, 2010).
